# From patent US20050255538A1, “Methods for screening for AcrAB efflux pump inhibitors” (priority 2002, published 2005)
# Test system: E. coli ΔemrE mutants
# Test: Antimicrobial susceptibility assays of efflux pump deletion mutants
# Format: cell-based, Escherichia coli
# Settings: ΔemrE mutants in ΔacrAB ΔacrEF background vs parent
# Procedure: The PCR mixtures contained 50 ng of E. coli chromosomal DNA, 40 pmol of each primer, 0.2 mM (each) deoxynucleoside triphosphate, 2 mM MgSO4 and 10% (vol/vol) dimethylsufoxide in 1× thermo reaction buffer (New England Biolabs, Mississauga, Ontario, Canada) and were heated for 5 min at 94° C. before the addition of 2 U of Vent DNA polymerase (New England Biolabs) per reaction. The reaction was then processed for 30 cycles of 40 sec: at 94° C., 40 sec at 56° C. and 40 sec at 72° C. before finishing with 10 min at 72° C. The PCR products to be used in each deletion were purified using a Qiaquick™ PCR purification kit (Qiagen Inc.), digested with BamHI and EcoRI or EcoRI and Sail as appropriate, and cloned into EcoRI-SalI-restricted pBluescript II SK(+) via a three-piece ligation. The resultant vectors, pXZL967 and pXZL983, carried deletions in emrE and emrD respectively, as confirmed by restriction analysis and nucleotide sequencing. Digestion of plasmids pXZL967 and pXZL983, with BamHI and SalI released fragments carrying the PCR-generated deletions of emrE (246 bp in-frame deletion), and emrD (1101 bp in-frame deletion), respectively, which were then cloned into BamHI-SalI-restricted pK03, yielding pXZL975, pXZL987, and pXZL1024 (selected on chloramphenicol (30 μg/ml)-containing LB agar at 30° C.). […]
compound,measurement,value
CC[n+]1c(-c2ccccc2)c2cc(N)ccc2c2ccc(N)cc21 [ethidium bromide],fold increase in MIC values (more susceptible),32 fold
